Experimental data reported in ChEMBL document CHEMBL1201862, “PubChem BioAssay data set” (2004).
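Each compound was tested at five concentrations against cells in 96-well plates for 48 hours. GI50: concentration for 50% inhibition of growth.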 The source made the active and inactive calls. Cut-off read from the data, not from the text of the source: active = GI50 up to about 1.1 µM and inactive = higher.

Columns and labels:
Experiment in all cases: growth of human tumour cells (NCI), 48 h
[1] = system: A549
[2] = system: COLO 205
[3] = system: DLD-1
[4] = system: DMS-273
[5] = system: HL-60
[6] = system: M19-MEL
[7] = system: NCI-H23
[8] = system: OVCAR-8
[9] = system: RPMI-8226
[10] = system: SF-539
[11] = system: SK-MEL-28
[12] = system: SK-OV-3
[13] = system: SNB-19
[14] = system: SW-620
[15] = system: UO-31
[16] = system: XF498
[17] = system: LOX IMVI
[18] = system: SR

Measured: GI50

COc1cccc(C2N3CCCCC3[C@@H]3c4[nH]c5ccccc5c4CCN23)c1OC (stereo partly specified)
inactive: [1] 15.8 µM | [2] 15.2 µM | [3] 16.9 µM | [4] 16 µM | [5] 15.1 µM | [6] 15.9 µM | [7] 16.9 µM | [8] 16.5 µM | [9] 18.7 µM | [10] 15 µM | [11] 16.8 µM | [12] 17.5 µM | [13] 11.9 µM | [14] 17.3 µM | [15] 14.9 µM | [16] 15.2 µM

CC1(C)C(=NNC(=S)NN)C(C)(C)C1=NNC(=S)NN
inactive: [1] > 100 µM | [2] > 100 µM | [3] > 100 µM | [5] > 10 µM | [17] > 100 µM | [6] > 100 µM | [7] > 100 µM | [8] > 100 µM | [9] > 100 µM | [10] > 100 µM | [11] > 100 µM | [12] > 100 µM | [13] > 100 µM | [14] > 100 µM | [16] > 100 µM

Nc1ccc2nc(NCc3ccc(F)cc3)cnc2c1
inactive: [1] > 100 µM | [2] > 100 µM | [4] > 100 µM | [5] 54.1 µM | [17] > 100 µM | [7] > 100 µM | [8] > 100 µM | [9] > 100 µM | [10] 79.3 µM | [11] > 100 µM | [13] 44.5 µM | [18] 66.7 µM | [14] > 100 µM | [15] 21.3 µM | [16] > 100 µM

CCOC(=O)NC1C2CC(=O)OC(O2)C1OC(C)=O (stereo unspecified)
inactive: [1] > 100 µM | [2] > 100 µM | [3] 90.6 µM | [4] > 100 µM | [17] > 100 µM | [6] > 100 µM | [7] > 100 µM | [8] > 100 µM | [9] > 100 µM | [10] > 100 µM | [11] > 100 µM | [12] > 100 µM | [13] > 100 µM | [18] > 100 µM | [14] > 100 µM | [15] 60.7 µM

N#CC(C(=N/O)/C(=N\O)C(C#N)c1ccccc1)c1ccccc1 (stereo unspecified)
inactive: [1] > 100 µM | [2] > 100 µM | [3] > 100 µM | [5] > 100 µM | [17] 87.3 µM | [6] 99.1 µM | [7] > 100 µM | [8] > 100 µM | [9] > 100 µM | [10] > 100 µM | [11] > 100 µM | [12] > 100 µM | [13] > 100 µM | [14] > 100 µM | [15] > 100 µM | [16] > 100 µM

O=C(O)/C(=C\c1ccccc1Cl)S(=O)(=O)c1ccccc1
inactive: [1] > 100 µM | [2] > 100 µM | [3] > 100 µM | [4] > 100 µM | [5] > 100 µM | [17] > 100 µM | [6] > 100 µM | [8] > 100 µM | [9] > 100 µM | [10] > 100 µM | [12] > 100 µM | [13] > 100 µM | [18] > 10 µM | [14] > 100 µM | [15] > 100 µM

CCN(CC)C(=O)c1cccc2c(OC)ccc(OC)c12
inactive: [1] > 100 µM | [2] > 100 µM | [3] > 100 µM | [4] > 100 µM | [5] > 100 µM | [17] > 100 µM | [6] > 100 µM | [7] > 100 µM | [8] > 100 µM | [9] > 100 µM | [11] > 100 µM | [12] > 100 µM | [13] > 100 µM | [18] > 100 µM | [14] > 100 µM | [15] > 100 µM

O=C(CCc1cc(-c2ccccc2)[nH]c(=S)n1)Nc1ccccc1[N+](=O)[O-]
inactive: [1] > 100 µM | [2] > 100 µM | [4] > 100 µM | [5] > 100 µM | [17] > 100 µM | [6] > 100 µM | [7] > 100 µM | [8] > 100 µM | [9] > 100 µM | [10] > 100 µM | [11] > 100 µM | [12] > 100 µM | [13] > 100 µM | [18] > 100 µM | [14] > 100 µM | [15] > 100 µM | [16] 42 µM

c1ccc2c(OCCSCCCCCCCCCCSCCOc3cccc4ccccc34)cccc2c1
inactive: [1] > 100 µM | [2] > 100 µM | [3] > 100 µM | [4] > 100 µM | [5] > 100 µM | [17] > 100 µM | [6] > 100 µM | [7] > 100 µM | [8] > 100 µM | [9] > 100 µM | [10] > 100 µM | [11] > 100 µM | [12] > 100 µM | [13] > 100 µM | [14] > 100 µM | [15] > 100 µM

O=C(CC(=O)c1cccc([N+](=O)[O-])c1)C(=O)Nc1ccccc1
inactive: [1] > 100 µM | [3] > 100 µM | [4] > 100 µM | [5] > 100 µM | [17] > 100 µM | [6] > 100 µM | [7] > 100 µM | [8] > 100 µM | [9] > 100 µM | [10] > 100 µM | [11] > 100 µM | [13] > 100 µM | [14] > 100 µM | [15] > 100 µM | [16] > 100 µM

COc1ccc2cc3n(c2c1)CCc1cc(OC)c(OC)cc1-3
inactive: [1] > 100 µM | [2] > 100 µM | [3] > 100 µM | [4] > 100 µM | [5] > 100 µM | [17] > 100 µM | [6] > 100 µM | [7] > 100 µM | [8] > 100 µM | [10] > 100 µM | [11] > 100 µM | [12] > 100 µM | [13] > 100 µM | [14] > 100 µM | [15] > 100 µM | [16] > 100 µM

Nc1nc2sc3ccccc3c(=O)n2n1
inactive: [1] > 100 µM | [2] > 100 µM | [3] > 100 µM | [4] > 100 µM | [5] > 100 µM | [17] > 100 µM | [7] > 100 µM | [8] > 100 µM | [9] > 100 µM | [10] > 100 µM | [11] > 100 µM | [12] > 100 µM | [13] > 100 µM | [18] > 100 µM | [14] > 100 µM | [15] > 100 µM | [16] > 100 µM

O=C(O)/C=C/c1ccc(O)c(O)c1 [CAFFEIC ACID]
inactive: [1] > 100 µM | [2] > 100 µM | [3] > 100 µM | [4] > 100 µM | [5] > 100 µM | [17] > 100 µM | [6] > 100 µM | [7] > 100 µM | [8] > 100 µM | [9] > 100 µM | [10] > 100 µM | [11] > 100 µM | [12] > 100 µM | [13] > 100 µM | [14] > 43.3 µM | [15] 77.6 µM
